Assay results as given in patent US9382295B2, “Cyclic depsipeptide compounds and their uses” (Cypralis Limited, priority 2012, dated 2016).
Where two headings read alike, the source gives them in different places.

Key:
[1] = Water solubility assay (pH 7.8 buffer); type: physicochemical; conditions: pH 7.8
Summary of the method: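 DMSO stocks were diluted into 35 mM HEPES pH 7.8 to final 0–100 μM with 1% DMSO, in triplicate. Plates were shaken 18 h at 25 °C, then precipitation was detected as increased absorbance at 650 nm. Values give the concentration (μM) at which the compound remains in solution.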

[2] = target: T1, calcineurin/cyclophilin A (Homo sapiens, UniProt P62937+P63098+Q08209); test: Calcineurin phosphatase (CaN) assay in the presence of Cyp A; type: biochemical; conditions: inhibitor in 1:1 complex with Cyp A; read-out: CaN + CypA (IC50 in the calcineurin/cyclophilin A assay)
T1 construct: purchased Enzo Life Sciences (calcineurin, calmodulin); Sigma (CypA) BML-AK804; C3805
From the text: **Calcineurin Phosphatase (CaN) Assay The calcineurin phosphatase assay is a means for estimating the immunosuppressive potential of a test compound. Calcineurin is a serine-threonine protein phosphatase that on activation dephosphorylates members of the nuclear factor of activated T cells (NFAT), which are important in T lymphocyte activation. […] To investigate the immunosuppressive potential of exemplary compounds of Formula 1, which are novel cycloundecadepsipeptide compounds, their ability to inhibit calcineurin activity was measured in the presence of Cyp A. The CaN assay kit used is based on a colorimetric assay for measuring calcineurin phosphatase activity, and it is commercially available (Enzo Life Sciences and Calbiochem). Calmodulin is also required for calcineurin activity and RH phosphopeptide is used as an efficient peptide substrate for calcineurin. […] The detection of free phosphate released is based on the classic Malachite green assay. Enzo Life Sciences CaN Assay Kit: BML-AK804 2× assay buffer: 100 mM Tris, pH7.5, 200 mM NaCl, 12 mM MgCl2, 1 mM DTT, 0.05% NP-40, 1 mM CaCl2 Calmodulin (Human, Recombinant): was thawed on ice, diluted 1:50 with 2× assay buffer, and then stored on ice. Calcineurin: was thawed quickly, stored on ice immediately, diluted 1:12.5 with 1× assay buffer, and then stored on ice. R-II Substrate: 915 μL ultrapure water (UPW) was added to the 1.5 mg vial substrate to give a final concentration of 0.75 mM. Inhibitors: 2.5 mM inhibitor in 100% DMSO. Cyp A: recombinant human CypA (Sigma C3805), 1 mg/ml; Recombinant 6-his tagged CypA prepared by the Univ. of Edinburgh was also used. […] Inhibitor dilutions: inhibitor compounds were diluted in UPW in polypropylene low-binding 96 well plates at 5x the final assay concentration. For samples ‘without Cyp A’, a 4-point dilution series of the inhibitor was prepared in duplicate to obtain a final assay concentration of 10, 1, 0.1 and 0.01 μM. […] Cs A inhibitor controls were also prepared to obtain a final concentration of 10 μM Cs A with and without 10 μM Cyp A. Assay Setup: using the half area 96 well plates supplied with the kit, 10 μl UPW was added to duplicate wells to provide the non-inhibited control. 10 μl of the inhibitor or the inhibitor/Cyp A complex was added to the appropriate sample wells. 25 μl of the 2× assay buffer with CaM was added to all wells, then 5 μl of CaN was added to all wells (40 U per well final concentration) except duplicate ‘no calcineurin blank’ wells to which 5 μL 1× assay buffer was added. […] The reaction was started by the addition of 10 μl RII-peptide (0.15 mM final concentration). The reaction was allowed to proceed at 30° C. for a time period in which the reaction is linear for about 60 minutes. The reaction was then terminated by adding 100 μl of the Malachite Green reagent. […] The data were analyzed by subtracting ‘no Calcineurin blank’ from all the absorbance readings and plotting the background corrected absorbances against Log10 inhibitor concentration. A sigmoidal-dose response curve was fitted to the data using GraphPad Prism Software. […] It exerts its immunosuppressive activity by binding to cyclophilin A to form a complex, which then binds to calcineurin and thereby inhibits calcineurin activity.

[3] = Rat pharmacokinetics, iv and po dosing, whole blood and plasma; type: in vivo; conditions: for AUC(0-inf) / AUC(0-t) / Cmax / half-life / clearance / Vd / bioavailability / Tmax: mean; for half-life: read-out: half-life (T1/2) (converted); for clearance: read-out: systemic clearance (converted); for Vd: read-out: volume of distribution at the terminal phase; for bioavailability: po 10 mg/kg vs iv 1 mg/kg
Description: Rat pharmacokinetic data was obtained for example 2, following iv dosing at 1 mg/kg and po dosing at 10 mg/kg and individual analysis of plasma and whole blood samples at various time points was carried out.

T1 sequence (P63098 whole entry, other chains not shown): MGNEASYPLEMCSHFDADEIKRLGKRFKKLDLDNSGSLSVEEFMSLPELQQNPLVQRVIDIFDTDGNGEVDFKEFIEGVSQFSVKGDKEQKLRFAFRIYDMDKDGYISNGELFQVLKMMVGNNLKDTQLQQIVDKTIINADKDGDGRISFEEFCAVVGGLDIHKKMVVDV
T1 sequence (P62937 whole entry, other chains not shown): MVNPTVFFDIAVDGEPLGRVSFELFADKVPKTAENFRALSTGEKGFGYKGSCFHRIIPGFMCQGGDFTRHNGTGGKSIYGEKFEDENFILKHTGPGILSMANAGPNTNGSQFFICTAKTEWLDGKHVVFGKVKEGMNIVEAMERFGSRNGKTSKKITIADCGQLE

CC(C)CC1NC(=O)[C@H](CC(C)C)N(C)C(=O)CN(C)C(=O)C([C@@H](C)O)NC(=O)C([C@H](O)[C@H](C)CCN2CCOCC2)N(C)C(=O)C(C(C)C)N(C)C(=O)C(CC(C)C)NC(=O)C(CC(C)C)N(C)C(=O)C(C(C)C)OC(=O)C(C)NC(=O)C(CC(C)C)N(C)C1=O (stereo in doubt) [Example 2, cyclo-[(3R,4R,5S)-4-(hydroxy)-3-methyl-5-(methylamino)-1-N-morpholino-hexanoic acid-Thr-Sar-MeLeu-Leu-MeLeu-Ala-D-Hiv-MeLeu-Leu-MeVal]]
solubility at 18 h [1]: > 100 µM
IC50 [2]: > 1 µM
blood plasma ratio ([3]; intravenous, 1 mg/kg, from volumes of distribution in plasma and whole blood, read-out: difference in blood to plasma ratio): ~3
systemic clearance relative to hepatic blood flow in rats (3.31 L/hr/kg) ([3]; plasma, iv 1 mg/kg): 1.26 fold
volume of distribution relative to total body water (0.67 L/kg) in rats ([3]; plasma, iv 1 mg/kg): 44.69 fold
AUC(0-inf) ([3]; plasma, iv 1 mg/kg): 239 ng·h/mL
AUC(0-t) ([3]; plasma, iv 1 mg/kg): 197 ng·h/mL
Cmax ([3]; plasma, iv 1 mg/kg): 275 ng/mL
half-life ([3]; plasma, iv 1 mg/kg): 4.96 h
clearance ([3]; plasma, iv 1 mg/kg): 69.7 mL/min/kg
Vd ([3]; plasma, iv 1 mg/kg): 29.9 L/kg
bioavailability ([3]; plasma): 95.9%
AUC(0-inf) ([3]; plasma, po 10 mg/kg): 2290 ng·h/mL
AUC(0-t) ([3]; plasma, po 10 mg/kg): 2250 ng·h/mL
Tmax ([3]; plasma, po 10 mg/kg): 2 h
Cmax ([3]; plasma, po 10 mg/kg, read-out: Cmax): 328 ng/mL
half-life ([3]; plasma, po 10 mg/kg): 4.4 h
systemic clearance as share of hepatic blood flow in rats (3.31 L/hr/kg) ([3]; whole blood, iv 1 mg/kg): 35.0%
volume of distribution relative to total body water (0.67 L/kg) in rats ([3]; whole blood, iv 1 mg/kg): 15.40 fold
AUC(0-inf) ([3]; whole blood, iv 1 mg/kg): 859 ng·h/mL
AUC(0-t) ([3]; whole blood, iv 1 mg/kg): 827 ng·h/mL
Cmax ([3]; whole blood, iv 1 mg/kg): 643 ng/mL
half-life ([3]; whole blood, iv 1 mg/kg): 6.14 h
clearance ([3]; whole blood, iv 1 mg/kg): 19.3 mL/min/kg
Vd ([3]; whole blood, iv 1 mg/kg): 10.3 L/kg
bioavailability ([3]; whole blood): 70.1%
AUC(0-inf) ([3]; whole blood, po 10 mg/kg): 6020 ng·h/mL
AUC(0-t) ([3]; whole blood, po 10 mg/kg): 5930 ng·h/mL
Tmax ([3]; whole blood, po 10 mg/kg): 2 h
Cmax ([3]; whole blood, po 10 mg/kg, read-out: Cmax): 678 ng/mL
half-life ([3]; whole blood, po 10 mg/kg): 4.03 h
